From patent US8614068B2, “Process for producing hepcidin” (Hellenic Pasteur Institute, priority 2007, dated 2013)
Entries after “also recorded” stand apart in the source; their conditions may differ.

What was measured:
[1] = target: T1, ferroportin (FPN1) (Mus musculus, UniProt Q9JHI9); assay: Western blot of ferroportin expression in macrophages; format: cell-based, murine; settings: RAW 264.7, 1 μM, 4 h at 37° C.
T1 construct: endogenous in cells; host or cells: RAW 264.7 murine macrophages
T1 sequence (Q9JHI9 1-570): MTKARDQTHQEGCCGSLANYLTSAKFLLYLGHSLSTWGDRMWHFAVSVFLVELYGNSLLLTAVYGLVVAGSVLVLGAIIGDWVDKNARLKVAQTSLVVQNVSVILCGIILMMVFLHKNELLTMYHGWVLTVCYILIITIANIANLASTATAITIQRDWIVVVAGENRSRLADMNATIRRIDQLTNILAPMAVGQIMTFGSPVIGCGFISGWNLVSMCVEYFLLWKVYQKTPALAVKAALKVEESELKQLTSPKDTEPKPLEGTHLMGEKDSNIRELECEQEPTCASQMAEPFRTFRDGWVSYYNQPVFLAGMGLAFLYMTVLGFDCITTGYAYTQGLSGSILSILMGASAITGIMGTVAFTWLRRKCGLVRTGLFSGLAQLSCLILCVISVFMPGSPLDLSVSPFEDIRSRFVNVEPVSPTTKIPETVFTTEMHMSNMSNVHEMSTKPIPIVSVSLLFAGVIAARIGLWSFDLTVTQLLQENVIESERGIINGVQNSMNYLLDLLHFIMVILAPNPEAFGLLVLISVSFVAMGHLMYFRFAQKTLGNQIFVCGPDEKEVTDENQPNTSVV

[2] = target: T1, ferroportin (FPN1); assay: Cross-linking and pull-down assay; format: binding, murine; settings: RAW 264.7, 10 nM, cross-linking with DSS, Ni2-NTA pull-down, anti-ferroportin Western blot
Description: (§1) A, RAW 264.7 macrophages were treated with 11 μM and 10 μM of synthetic hepcidin-25 (having the sequence of SEQ ID NO. 2) and Hep-25His (having the sequence of SEQ ID NO. 6) for 4 h at 37° C. or with PBS as negative control. Cell lysates were subjected to 8% SDS PAGE and Western Blot with antibodies against TfR1, Ferroportin and actin as loading control. B, The signal density of ferroportin, TfR1 and actin protein bands from two independent experiments were quantified by densitometry and their intensity relative to actin was calculated. Data are expressed as mean of ratios of TfR1 or to actin levels ±S.D. for each experimental condition. *p<0.01. […] Hep25-His, negative peptide and PBS was incubated with Raw 264.7 macrophages, followed by cross-linking with DSS. Cell lysates were incubated with Ni2-NTA and eluates were analyzed by Western blot using anti-FPN1 Ab. […] HEK293-Fpn cells were induced with ponasterone for 24 h and then treated with Hep25-His or synthetic hepcidin 25 (s. Hep25) for 3 h. Fluorescence was visualized with a Leica TCS confocal microscope.
Disuccinimidyl suberate (DSS, Pierce, Rockford, Ill.) was added for 20 min at room temperature, followed by quenching with 20 mM TriseHCl pH 7.4 for 20 min. […] Bound proteins were eluted with 1 M imidazole and analyzed by Western blot using anti-FPN1 antibody as described above. […]

[3] = tested on: TfR1; assay: Western blot of TfR1 expression in macrophages; format: cell-based, murine
Description: as §1, with “calculated.” for “calculated. Data are expressed as mean of ratios of TfR1 or to actin levels ±S.D. for each experimental condition. *p<0.01.”
Western blotting—1×10^6 cells (RAW 264.7, THP-1 or J774) were plated in […] plates and after 12-20 h cells were treated with hepcidins in serum-free DMEM for 4 h, at 37° C. Afterwards, cells were re-suspended in lysis buffer (1% Triton, 25 mM Hepes pH 7.4, 150 mM NaCl, 10% Glycerol, 5 mM EDTA, 0.5 mM PMSF, protein inhibitors (Roche, Mannheim, Germany) and quantified by Bradford assay (Biorad, Hercules, Calif.). 30 μg of cell lysate was analyzed on 8% SDS-PAGE. Proteins were transferred to Hybond C nitrocellulose membrane (Amersham Biosciences, Piscataway, N.J.) and the membranes were incubated with the primary antibodies rabbit anti-ferroportin (Alpha Diagnostics, San Antonio, Tex.), mouse anti-TfR1 (Zymed, Invitrogen, Carlsbad, Calif.) and mouse anti-β actin (Santa Cruz Biotech, Santa Cruz, Calif.), in a dilution of 1:1000, overnight at 4° C. […] Specific signal was detected with a chemiluminescence assay kit (ECL, Amersham Biosciences, Piscataway, N.J.). The bands were quantified by densitometry using the Quantity-One (Biorad, Hercules, Calif.) software. […]

hepcidin-25His [Hep-25His]
reduction of FPN1 in comparison to untreated cells [1]: 37%±7 | specific binding to FPN1 [2]: binds specifically to FPN1; also recorded: binds specifically to FPNI | specific binding to FPN1 ([2]; listed as recombinant peptide): can specifically bind to its receptor (ferroportin) | reduction of TfR1 in comparison to untreated cells ([3]; RAW 264.7, 10 μM, 4 h at 37° C.): 48%±17.7 | decrease in TfR1 expression ([3]; RAW 264.7 macrophages): ~50%
